{
  "source": "patent US8192962B2",
  "about": "“Processes for detecting toxic substances” (Daikin Industries, Ltd., priority 2001, dated 2012)",
  "test_system": "Energy system protein genes",
  "test": "DNA chip mRNA expression in yeast, energy system protein genes (Table 4)",
  "assay_type": "cell-based, Saccharomyces cerevisiae S288C",
  "summary_of_the_method": "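Values are treated/untreated fluorescence ratios from a whole-genome yeast DNA chip hybridized over 12 hours at 65° C with Cy3- or Cy5-labelled cDNA from poly(A) mRNA. Log-phase S288C yeast in YPD at 25° C had received a single toxic chemical for two hours, dosed to slow growth without killing.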",
  "data": [
    {"substance": "manganese ethylenebis(dithiocarbamate) [(8)]", "values": [
      {"measurement": "The level of expressed mRNA in the presence of chemical substance/The level of expressed mRNA in the absence of chemical substance", "setting": "yeast gene YAL060W", "result": 0.9},
      {"measurement": "The level of expressed mRNA in the presence of chemical substance/The level of expressed mRNA in the absence of chemical substance", "setting": "yeast gene YBL058W, cells incubated two hours with the chemical substance", "result": 1.2},
      {"measurement": "The level of expressed mRNA in the presence of chemical substance/The level of expressed mRNA in the absence of chemical substance", "setting": "yeast gene YBL099W, cells incubated two hours with the chemical substance", "result": 0.8},
      {"measurement": "The level of expressed mRNA in the presence of chemical substance/The level of expressed mRNA in the absence of chemical substance", "setting": "yeast gene YBR001C, cells incubated two hours with the chemical substance", "result": 1.3},
      {"measurement": "The level of expressed mRNA in the presence of chemical substance/The level of expressed mRNA in the absence of chemical substance", "setting": "yeast gene YBR185C, cells incubated two hours with the chemical substance", "result": 1.1},
      {"measurement": "The level of expressed mRNA in the presence of chemical substance/The level of expressed mRNA in the absence of chemical substance", "setting": "yeast gene YBR221C, cells incubated two hours with the chemical substance", "result": 0.8},
      {"measurement": "The level of expressed mRNA in the presence of chemical substance/The level of expressed mRNA in the absence of chemical substance", "setting": "yeast gene YCL040W", "result": 0.7},
      {"measurement": "The level of expressed mRNA in the presence of chemical substance/The level of expressed mRNA in the absence of chemical substance", "setting": "yeast gene YCR012W", "result": 0.8},
      {"measurement": "The level of expressed mRNA in the presence of chemical substance/The level of expressed mRNA in the absence of chemical substance", "setting": "yeast gene YCR046C, cells incubated two hours with the chemical substance", "result": 0.9},
      {"measurement": "The level of expressed mRNA in the presence of chemical substance/The level of expressed mRNA in the absence of chemical substance", "setting": "yeast gene YCR105W, cells incubated two hours with the chemical substance", "result": 1.4},
      {"measurement": "The level of expressed mRNA in the presence of chemical substance/The level of expressed mRNA in the absence of chemical substance", "setting": "yeast gene YDL021W", "result": 2.7},
      {"measurement": "The level of expressed mRNA in the presence of chemical substance/The level of expressed mRNA in the absence of chemical substance", "setting": "yeast gene YDL067C, cells incubated two hours with the chemical substance", "result": 1.1},
      {"measurement": "The level of expressed mRNA in the presence of chemical substance/The level of expressed mRNA in the absence of chemical substance", "setting": "yeast gene YDL078C, cells incubated two hours with the chemical substance", "result": 1.0},
      {"measurement": "The level of expressed mRNA in the presence of chemical substance/The level of expressed mRNA in the absence of chemical substance", "setting": "yeast gene YDL107W, cells incubated two hours with the chemical substance", "result": 1.8},
      {"measurement": "The level of expressed mRNA in the presence of chemical substance/The level of expressed mRNA in the absence of chemical substance", "setting": "yeast gene YDL174C", "result": 0.8},
      {"measurement": "The level of expressed mRNA in the presence of chemical substance/The level of expressed mRNA in the absence of chemical substance", "setting": "yeast gene YDL181W, cells incubated two hours with the chemical substance", "result": 0.6},
      {"measurement": "The level of expressed mRNA in the presence of chemical substance/The level of expressed mRNA in the absence of chemical substance", "setting": "yeast gene YDR001C", "result": 0.9},
      {"measurement": "The level of expressed mRNA in the presence of chemical substance/The level of expressed mRNA in the absence of chemical substance", "setting": "yeast gene YDR050C, cells incubated two hours with the chemical substance", "result": 1.3},
      {"measurement": "The level of expressed mRNA in the presence of chemical substance/The level of expressed mRNA in the absence of chemical substance", "setting": "yeast gene YDR079W, cells incubated two hours with the chemical substance", "result": 2.6},
      {"measurement": "The level of expressed mRNA in the presence of chemical substance/The level of expressed mRNA in the absence of chemical substance", "setting": "yeast gene YDR178W, cells incubated two hours with the chemical substance", "result": 0.9},
      {"measurement": "The level of expressed mRNA in the presence of chemical substance/The level of expressed mRNA in the absence of chemical substance", "setting": "yeast gene YDR231C", "result": 1.3},
      {"measurement": "The level of expressed mRNA in the presence of chemical substance/The level of expressed mRNA in the absence of chemical substance", "setting": "yeast gene YDR298C, cells incubated two hours with the chemical substance", "result": 1.2},
      {"measurement": "The level of expressed mRNA in the presence of chemical substance/The level of expressed mRNA in the absence of chemical substance", "setting": "yeast gene YDR377W, cells incubated two hours with the chemical substance", "result": 1.3},
      {"measurement": "The level of expressed mRNA in the presence of chemical substance/The level of expressed mRNA in the absence of chemical substance", "setting": "yeast gene YDR529C, cells incubated two hours with the chemical substance", "result": 1.3},
      {"measurement": "The level of expressed mRNA in the presence of chemical substance/The level of expressed mRNA in the absence of chemical substance", "setting": "yeast gene YEL024W, cells incubated two hours with the chemical substance", "result": 1.0},
      {"measurement": "The level of expressed mRNA in the presence of chemical substance/The level of expressed mRNA in the absence of chemical substance", "setting": "yeast gene YEL039C, cells incubated two hours with the chemical substance", "result": 1.1},
      {"measurement": "The level of expressed mRNA in the presence of chemical substance/The level of expressed mRNA in the absence of chemical substance", "setting": "yeast gene YER178W", "result": 0.8},
      {"measurement": "The level of expressed mRNA in the presence of chemical substance/The level of expressed mRNA in the absence of chemical substance", "setting": "yeast gene YFL057C", "result": 18.0},
      {"measurement": "The level of expressed mRNA in the presence of chemical substance/The level of expressed mRNA in the absence of chemical substance", "setting": "yeast gene YFR053C", "result": 2.8},
      {"measurement": "The level of expressed mRNA in the presence of chemical substance/The level of expressed mRNA in the absence of chemical substance", "setting": "yeast gene YGL018C, cells incubated two hours with the chemical substance", "result": 0.8},
      {"measurement": "The level of expressed mRNA in the presence of chemical substance/The level of expressed mRNA in the absence of chemical substance", "setting": "yeast gene YGL062W", "result": 0.8},
      {"measurement": "The level of expressed mRNA in the presence of chemical substance/The level of expressed mRNA in the absence of chemical substance", "setting": "yeast gene YGL187C, cells incubated two hours with the chemical substance", "result": 0.7},
      {"measurement": "The level of expressed mRNA in the presence of chemical substance/The level of expressed mRNA in the absence of chemical substance", "setting": "yeast gene YGL191W, cells incubated two hours with the chemical substance", "result": 1.6},
      {"measurement": "The level of expressed mRNA in the presence of chemical substance/The level of expressed mRNA in the absence of chemical substance", "setting": "yeast gene YGL205W, cells incubated two hours with the chemical substance", "result": 1.2},
      {"measurement": "The level of expressed mRNA in the presence of chemical substance/The level of expressed mRNA in the absence of chemical substance", "setting": "yeast gene YGL256W, cells incubated two hours with the chemical substance", "result": 1.0},
      {"measurement": "The level of expressed mRNA in the presence of chemical substance/The level of expressed mRNA in the absence of chemical substance", "setting": "yeast gene YGR043C", "result": 2.6},
      {"measurement": "The level of expressed mRNA in the presence of chemical substance/The level of expressed mRNA in the absence of chemical substance", "setting": "yeast gene YGR062C, cells incubated two hours with the chemical substance, 25° C., YPD medium", "result": 0.8},
      {"measurement": "The level of expressed mRNA in the presence of chemical substance/The level of expressed mRNA in the absence of chemical substance", "setting": "yeast gene YGR087C, cells incubated two hours with the chemical substance", "result": 0.8},
      {"measurement": "The level of expressed mRNA in the presence of chemical substance/The level of expressed mRNA in the absence of chemical substance", "setting": "yeast gene YGR174C, cells incubated two hours with the chemical substance", "result": 1.6},
      {"measurement": "The level of expressed mRNA in the presence of chemical substance/The level of expressed mRNA in the absence of chemical substance", "setting": "yeast gene YGR192C", "result": 1.1},
      {"measurement": "The level of expressed mRNA in the presence of chemical substance/The level of expressed mRNA in the absence of chemical substance", "setting": "yeast gene YGR244C", "result": 1.8},
      {"measurement": "The level of expressed mRNA in the presence of chemical substance/The level of expressed mRNA in the absence of chemical substance", "setting": "yeast gene YGR254W", "result": 1.4},
      {"measurement": "The level of expressed mRNA in the presence of chemical substance/The level of expressed mRNA in the absence of chemical substance", "setting": "yeast gene YHR179W", "result": 3.3},
      {"measurement": "The level of expressed mRNA in the presence of chemical substance/The level of expressed mRNA in the absence of chemical substance", "setting": "yeast gene YIL160C", "result": 1.2},
      {"measurement": "The level of expressed mRNA in the presence of chemical substance/The level of expressed mRNA in the absence of chemical substance", "setting": "yeast gene YIR031C, cells incubated two hours with the chemical substance", "result": 1.0},
      {"measurement": "The level of expressed mRNA in the presence of chemical substance/The level of expressed mRNA in the absence of chemical substance", "setting": "yeast gene YJL052W", "result": 1.5},
      {"measurement": "The level of expressed mRNA in the presence of chemical substance/The level of expressed mRNA in the absence of chemical substance", "setting": "yeast gene YJL121C, cells incubated two hours with the chemical substance", "result": 1.0},
      {"measurement": "The level of expressed mRNA in the presence of chemical substance/The level of expressed mRNA in the absence of chemical substance", "setting": "yeast gene YJL166W, cells incubated two hours with the chemical substance", "result": 1.4},
      {"measurement": "The level of expressed mRNA in the presence of chemical substance/The level of expressed mRNA in the absence of chemical substance", "setting": "yeast gene YJL216C, cells incubated two hours with the chemical substance", "result": 1.9},
      {"measurement": "The level of expressed mRNA in the presence of chemical substance/The level of expressed mRNA in the absence of chemical substance", "setting": "yeast gene YJR009C", "result": 1.1}
    ]}
  ]
}
